Experimental data taken from patent US20240285661A1, “Inhibitor of Invasion of Virus to Cell” (TOYO SUGAR REFINING CO., LTD., priority 2021, published 2024).

Legend:
pseudo SARS-CoV-2 [1] = assay: microbe, parasite or virus in culture; assay type: cell-based; conditions: Severe acute respiratory syndrome coronavirus 2, Caco-2 cells, read-out: Inhibition rate of invasion to cell (%)
pseudo SARS-CoV-2 [2] = assay: microbe, parasite or virus in culture; assay type: cell-based; conditions: Severe acute respiratory syndrome coronavirus 2, A549, concentration 20 nM, read-out: Inhibition rate of invasion to cell (%)

SMILES: N=C(N)c1ccc2cc(OC(=O)c3ccc(N=C(N)N)cc3)ccc2c1 [Nafamostat]
- inhibition at 0.00016 µM (pseudo SARS-CoV-2 [1]; concentration 0.16 nM): 40.4%
- inhibition at 0.0008 µM (pseudo SARS-CoV-2 [1]; concentration 0.80 nM): 48.9%
- inhibition at 0.1 µM (pseudo SARS-CoV-2 [1]; concentration 100 nM): 76.1%
- inhibition at 0.02 µM (pseudo SARS-CoV-2 [2]): 49%
